Assay results as given in patent US6479537B2, “Synergistic ectoparasiticidal methods and compositions” (American Cyanamid Company, priority 2000, dated 2002).
Converted amounts (≈) assume the structure as drawn. “And” between values parts separate entries of the source, which are not always exact repeats. Identical values can stand only once.

Tested on: newly emerged larvae of the blowfly, Lucilia sericata
Test: treated paper/serum bioassay, contact and/or ingestion activity against newly emerged blowfly larvae
Format: in vivo
Details: single compound
Procedure: Contact and/or ingestion activities of compounds against newly emerged larvae of the blowfly, Lucilia sericata, are tested using a treated paper/serum bioassay. In this assay, test compounds diluted to the required concentrations in acetone are applied to filter paper discs and allowed to dry. Bovine serum and newly emerged blowfly larvae are added to the discs and mortality assessed at 24 and 48 hours.

[1] = larval mortality assessed at 48 hours

Compound	LC50 (Lucilia sericata, 48 h, larval mortality assessed at 48 hours, read-out: Approximate LC50 48 hour) [mg/L]	Approximate LC50 48 hour [1]	Approximate LC50 24 hour (larval mortality assessed at 24 hours)
CCOCn1c(-c2ccc(Cl)cc2)c(C#N)c(Br)c1C(F)(F)F [C, 4-bromo-2-(p-chlorophenyl)-1-(ethoxymethyl)-5-(trifluoromethyl)pyrrole-3-carbonitrile]	2.5 (≈ 6.13 µM)	4.69 mg/L	–
moxidectin	–	0.80 mg/L and 0.63 mg/L	1.54 mg/L and 0.85 mg/L
